# Source: paper PMC4042666 (Bioorganic & medicinal chemistry letters, 2013)
# What was measured:
# [1] = tested on: Huh7 cells; assay: Cytotoxicity in Huh7 cells
# [2] = tested on: HCV Replicon in Huh7 cells; assay: Inhibition of HCV RNA replication, subgenomic HCV replicon system in Huh7 cells; assay type: cell-based, Hepatitis C virus
# [3] = target: HCV NS3/4A protease genotype 1b mutant A156T (Hepatitis C virus genotype 1b, UniProt Q9WMX2, A1182T); assay: biochemical
# [4] = tested on: HCV NS3/4A protease genotype 1b mutant A156T; assay: biochemical; settings: A156T vs wild type
# [5] = target: Plasmin (Homo sapiens, UniProt P00747); assay: Effect on human protease Plasmin; assay type: biochemical; settings: read-out: Plasmin IC90
# Sequence of Plasmin (P00747 581-810 limits assumed): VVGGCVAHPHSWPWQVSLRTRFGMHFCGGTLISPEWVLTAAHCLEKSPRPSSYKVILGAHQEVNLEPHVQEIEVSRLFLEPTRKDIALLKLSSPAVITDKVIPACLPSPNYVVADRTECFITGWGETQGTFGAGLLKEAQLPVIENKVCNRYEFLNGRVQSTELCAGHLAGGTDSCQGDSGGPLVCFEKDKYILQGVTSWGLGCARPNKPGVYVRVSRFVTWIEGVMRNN
# Sequence of Plasmin (P00747 97-580 partner limits assumed): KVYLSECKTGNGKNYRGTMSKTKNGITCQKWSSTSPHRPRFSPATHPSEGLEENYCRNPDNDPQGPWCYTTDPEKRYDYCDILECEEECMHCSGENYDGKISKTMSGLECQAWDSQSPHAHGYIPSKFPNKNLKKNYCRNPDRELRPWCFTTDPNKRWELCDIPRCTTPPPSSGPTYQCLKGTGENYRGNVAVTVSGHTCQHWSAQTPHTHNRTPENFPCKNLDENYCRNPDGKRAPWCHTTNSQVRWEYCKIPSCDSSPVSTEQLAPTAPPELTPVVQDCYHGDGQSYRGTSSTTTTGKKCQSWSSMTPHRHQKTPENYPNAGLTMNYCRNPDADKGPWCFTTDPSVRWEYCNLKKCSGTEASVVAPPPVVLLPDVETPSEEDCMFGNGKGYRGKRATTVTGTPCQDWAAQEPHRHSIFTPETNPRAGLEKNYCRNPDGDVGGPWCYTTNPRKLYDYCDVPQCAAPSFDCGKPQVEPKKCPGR
# [6] = target: Thrombin (Homo sapiens, UniProt P00734); assay: Effect on human protease Thrombin; assay type: biochemical
# [7] = tested on: HCV NS3/4A protease genotype 1b mutant R155K; assay type: biochemical; settings: R155K vs wild type
# [8] = tested on: HCV NS3/4A protease genotype 1b mutant D168V; assay type: biochemical; settings: D168V vs wild type
# [9] = tested on: HCV NS3/4A protease genotype 1b mutant A156S; assay type: biochemical; settings: A156S vs wild type
# [10] = tested on: primary human PBM (peripheral blood mononuclear) cells; assay: Cytotoxicity in PBM cells; assay type: cell-based
# [11] = tested on: CEM cells (a human-T-cell-derived cell line); assay: Cytotoxicity in CEM cells; assay type: cell-based
# [12] = tested on: Vero cells (African green monkey kidney epithelial cells); assay: Cytotoxicity in Vero cells; assay type: cell-based
# [13] = tested on: HCV NS3/4A protease genotype 1b mutant V170A; assay type: biochemical; settings: V170A vs wild type
smiles,measurement,setting,value
CC(C)(C)[C@H](NC(=O)NC1CCCCC1)C(=O)N1CC2(Cc3ccccc3C2)C1C(=O)NC(CC1CCC1)C(=O)C(=O)NC1CC1 (stereo partly drawn) [Compound 41f],"Toxicity toward Huh7 cells, in words",[1],toxic
CCCC(NC(=O)C1CCN1C(=O)[C@@H](NC(=O)[C@@H](NC(=O)c1cnccn1)C1CCCCC1)C(C)(C)C)C(=O)C(=O)NC1CC1 (stereo partly drawn) [Compound 37d],"Anti-HCV activity, in words",[2],inactive
CCCC(NC(=O)C1N(C(=O)[C@@H](NC(=O)[C@@H](NC(=O)c2cnccn2)C2CCCCC2)C(C)(C)C)CC12Cc1ccccc1C2)C(=O)C(=O)NC1CC1 (stereo partly drawn) [Compound 37b],"Anti-HCV activity, in words",[2],complete loss of potency
"CCC[C@H](NC(=O)[C@@H]1[C@H]2CCC[C@H]2CN1C(=O)[C@@H](NC(=O)[C@@H](NC(=O)c1cnccn1)C1CCCCC1)C(C)(C)C)C(=O)C(=O)NC1CC1 [Compound 2, telaprevir]",EC90,[3],> 100 µM
same,Fold Increase (FI) of EC90,[4],> 130
same,IC90,[5],110 ± 32 µM
"CC(C)(C)NC(=O)N[C@H](C(=O)N1C[C@H]2[C@@H]([C@H]1C(=O)NC(CC1CCC1)C(=O)C(N)=O)C2(C)C)C(C)(C)C (stereo partly drawn) [Compound 1, boceprevir]",EC90,[3],> 100 µM
same,"Inhibition of thrombin, in words",[6],submicromolar inhibition
"CC[C@@H]1C[C@]1(NC(=O)[C@@H]1C[C@@H]2CN1C(=O)[C@H](C(C)(C)C)NC(=O)OCC(C)(C)CCCCc1cccc3c1CN(C3)C(=O)O2)C(=O)NS(=O)(=O)C1CC1 [MK-7009, vaniprevir]",EC90,[3],> 1 µM
same,Fold Increase (FI) of EC90,[4],> 77
same,Fold Increase (FI) of EC50,[7],> 160
same,Fold Increase (FI) of EC90,[7],> 77
same,Fold Increase (FI) of EC50,[8],> 160
same,Fold Increase (FI) of EC90,[8],> 77
same,Fold Increase (FI) of EC50,[9],< 0.16
CCCC(NC(=O)C1N(C(=O)[C@@H](NC(=O)NC2CCCCC2)C(C)(C)C)CC12Cc1ccccc1C2)C(=O)C(=O)NC1CC1 (stereo partly drawn) [Compound 41e],"Toxicity toward Huh7 cells, in words",[1],toxic
CCCC(NC(=O)C1N(C(=O)[C@@H](NC(=O)[C@@H](NC(=O)c2cnccn2)C2CCCCC2)C(C)(C)C)CC12CCCCC2)C(=O)C(=O)NC1CC1 (stereo partly drawn) [Compound 37h],"Toxicity in PBM cells, in words",[10],toxicity in the micromolar range
same,"Toxicity in CEM cells, in words",[11],toxicity in the micromolar range
same,"Toxicity in Vero cells, in words",[12],toxicity in the micromolar range
same,EC90,[3],> 100 µM
same,Fold Increase (FI) of EC50,[4],> 130
same,Fold Increase (FI) of EC90,[4],> 10
same,Fold Increase (FI) of EC90,[9],> 10
same,Fold Increase (FI) of EC50,[13],> 1.2
